# According to patent US11883491B2, “Compositions and methods for prevention and treatment of hearing loss” (ST. JUDE CHILDREN'S RESEARCH HOSPITAL, priority 2017, dated 2024):
# Columns and labels:
# [1] = system: neonatal mouse cochlear explants; assay: Inhibitor alone: proliferation and differentiation of endogenous SCs and HCs in neonatal cochlear explants; format: cell-based; details: inhibitor by itself, after 7 days
# Text: Atoh1, a transcription factor, can convert non-sensory supporting cells (SCs) to hair cells (HCs) in neonatal and juvenile mammalian cochleae (Izumikawa, et al. (2005) Nature Med. 11:271-6; Kelly, et al. (2012) J. Neurosci. 32:6699-710; Liu, et al. (2012) J. Neurosci. 32:6600-10). Ectopic expression of Atoh1 has been approved for clinical trials as a gene therapy. However, Atoh1-induced HC conversion is inefficient (<17%), incomplete (lacking mature HC markers), and age-dependent (no response in adult cochlea) (Izumikawa, et al. (2008) Hearing Res. 240:52-6; Liu, et al. (2012) J. Neurosci. 32:6600-10). Using RNA-seq analysis to compare the transcriptome of SCs, endogenous outer HCs (OHCS), and Atoh1-induced HCs (cHCs) in adult mouse cochleae, it was observed that the epidermal growth factor receptor (EGFR) signaling is enriched in SCs and cHCs using gene set enrichment analysis (GSEA). To validate the role of EGFR pathway ex vivo, neonatal mouse cochlear explants were treated with a potent EGFR inhibitor (AG1478). […] In addition, inhibitors targeting proteins downstream of EGFR signaling were tested including WP1066 (STAT3 inhibitor), LY 294002 (PI3K inhibitor), U0126 (MEK inhibitor), and U73122 (PLC inhibitor) at various doses above their respective EC50 values. […]
# FVB mice [2] = assay: Auditory brainstem response thresholds after transtympanic injection in adult mice; format: in vivo, mouse; details: adult (>P21) FVB mice, 10 μg transtympanic (TT) injection, 7 days after
# Description: (§1) To further evaluate the use of an inhibitor of EGFR signaling in HC regeneration, the toxicity of AG1478 in neonatal and adult mice was assessed.
# FVB mice [3] = assay: Toxicity (median lethal dose) in neonatal mice; format: in vivo, mouse; details: postnatal day 1 (P1) FVB mice, intraperitoneal (IP) injection; estimated
# Description: as §1
# [4] = system: neonatal mouse cochlear explants; assay: Atoh1-induced hair cell conversion in Atoh1-transfected neonatal mouse cochlear explants; format: cell-based
# Description: Representative images show the immunostaining of cochlear explants transfected with Atoh1-IRES-GFP and treated with vehicle (FIGS. 1A and 1C) or 100 nM AG1478 (FIGS. 1B and 1D). Expression of hair cell marker Myo6 (↑) and Atoh1-transfected cells (GFP, ? ) are shown.
# Atoh1 is transfected (O/E) in all conditions.
# HEI-OC1 cells [5] = assay: Protection against cisplatin-induced Caspase-3/7 activity / cell death in HEI-OC1 cells; format: cell-based, mouse; details: for protection against cisplatin-induced cell death: HEI-OC1, screen of 75 kinase inhibitors; for IC50: Mus musculus, HEI-OC1 cells
# Description: (§2) A screen of a library composed of 75 kinase inhibitors was conducted to identify inhibitors that protect against cisplatin-induced hair cell loss.
# mouse cochlear explants [6] = details: for protection against cisplatin-induced hair cell loss: cochlear explants, screen of 75 kinase inhibitors
# Description: as §2
# mouse cochlear explants [7] = assay: tissue or blood; details: read-out: IC50, protection against cisplatin-induced hair cell loss
# Description: as §2
# HEI-OC1 cells [8] = details: CELLTITER-GLO
# Description: as §2
structure (smiles),measurement,setting,value
"COc1cc2ncnc(Nc3cccc(Cl)c3)c2cc1OC [AG1478, AG 1478]",impact on the proliferation and differentiation of endogenous SCs and HCs,[1],no impact
same,changes in auditory brainstem response (ABR) thresholds,FVB mice [2],no significant changes
same,median lethal dose (LD50),FVB mice [3],30 mg/kg
same,Atoh1-induced hair cell conversion (immunostaining Myo6/GFP),"[4]; 100 nM AG1478 vs vehicle, Atoh1-IRES-GFP transfected explants",increased
same,Atoh1-induced HC conversion from explant SCs,"[4]; AG1478 combined with Atoh1, from 24.7% without inhibitor, FIGS. 1A-1D",80.6%
"CC1(COc2ccc3c(c2)ncn3-c2ccc3cccc(N4CCC(N)CC4)c3n2)COC1 [CRENOLANIB, Crenolanib]",protection against cisplatin-induced cell death,HEI-OC1 cells [5],potently protected
same,protection against cisplatin-induced hair cell loss,mouse cochlear explants [6],potently protected
"CC(C)(C)c1nc(-c2cccc(NS(=O)(=O)c3c(F)cccc3F)c2F)c(-c2ccnc(N)n2)s1 [GSK2118436A, dabrafenib]",protection against cisplatin-induced cell death,HEI-OC1 cells [5],potently protected
same,protection against cisplatin-induced hair cell loss,mouse cochlear explants [6],potently protected
"FC(F)(F)c1ccc(/C=C/c2nc(COc3ccc(CCCCn4ccnn4)cc3)co2)cc1 [MUBRITINIB, Mubritinib]",IC50,mouse cochlear explants [7],2.5 nM
same,protection against cisplatin-induced cell death,HEI-OC1 cells [5],potently protected
same,IC50,HEI-OC1 cells [5],4 nM
same,protection against cisplatin-induced hair cell loss,mouse cochlear explants [6],potently protected
same,LD50,mouse cochlear explants [6]; mouse cochlear explants,> 500 nM
same,Therapeutic Index,"mouse cochlear explants [6]; mouse cochlear explants, LD50/IC50",> 200
same,LD50,HEI-OC1 cells [8],> 55 µM
"CCOc1cc2ncc(C#N)c(Nc3ccc(F)c(Cl)c3)c2cc1NC(=O)/C=C/CN(C)C [PELITINIB, Pelitinib]",IC50,HEI-OC1 cells [5]; cisplatin-Glo 3/7,600 nM
same,protection of outer hair cells against cisplatin-induced hair cell loss,"mouse cochlear explants [6]; 1 hour pre-incubation, N=3",49%
O=C(Nc1cccc(Cl)c1)Nc1ncc(CCNc2ncnc3ccsc23)s1 [SNS314],protection against cisplatin-induced cell death,HEI-OC1 cells [5],potently protected
same,protection against cisplatin-induced hair cell loss,mouse cochlear explants [6],potently protected
